Source: patent publication US9586905B2, “Benzoazepine derivative and medical use thereof” (SANWA KAGAKU KENKYUSHO CO., LTD., priority 2012, dated 2017)

What was measured:
human V2 receptor = biological target: T1, human V2 receptor (Homo sapiens, UniProt P30518); experiment: cAMP production test in V2 receptor expression cell; format: cell-based; settings: for EC50: human V2 receptor expression cell, 30 minutes at room temperature, HTRF cAMP kit; for Emax: maximum reaction by 8-AVP assumed to be 100%
T1 construct: A DNA fragment containing a human V2 receptor code region; expressed in transfected cells
Protocol: Pharmacological Test (1) Preparation of Human V2 Receptor Expression Cell
A DNA fragment containing a human V2 receptor code region was inserted into an expression vector of a vertebrate cell. The expression vector was genetically introduced into an animal cell to have the human V2 receptor express in the surface of the cell. Since the expression vector could express a neo gene which functions as a G418 resistance marker, it was cultured in a G418-containing medium, thereby selectively obtaining a human V2 receptor stable expression cell.
(2) cAMP Production Test in V2 Receptor Expression Cell
The human V2 receptor expression cell, which was prepared in the above described method, was recovered and resuspended into an incubation buffer (F-12 medium, 20 mM HEPES), and 5 μl of the cell was then divided into a 384-well plate with a density of 15,000 cells/well. 5 μl of a compound solution or an 8-AVP ((Arg^8)-vasopressin) solution, which was diluted with an assay buffer (F-12 medium, 20 mM HEPES, 1 mM IBMX), (total 10 μl/well) was added to each well (final concentration: 15,000 cells/well, 500 μM IBMX, 1% dimethyl sulfoxide). After incubation at room temperature for 30 minutes, a cAMP production amount was measured using a commercially available HTRF cAMP kit (Cisbio Inc.) according to the described protocol. Excel Fit was used in order to find EC50 and Emax values of the test compound.

CYP3A4 = biological target: T2, CYP3A4 (Homo sapiens, UniProt P08684); experiment: Test of inhibition of cytochrome P450 (3A4) enzyme; format: in vitro ADME; settings: human liver microsome, midazolam 2.5 μM as substrate, test compound 0.21 to 50 μM, 37° C. 10 minutes
T2 construct: human liver microsome with a protein concentration of 0.1 mg protein/mL; from tissue; host or cells: human liver microsomes
Protocol: (4) Test of Inhibition of Cytochrome P450 (3A4) Enzyme
(§1) Using a 96 well plate, midazolam (2.5 μM) as a substrate, a test compound (0.21 to 50 μM), human liver microsome with a protein concentration of 0.1 mg protein/mL were added to a 0.1 M phosphoric acid buffer solution (pH=7.4), which contains 1.55 mM NADP^+, 3.3 mM glucose-6-phosphate, 3.3 mM MgCl2 and 0.4 Units/ml of glucose-6-phosphate dehydrogenase to form a reaction solution having a total amount of 500 μl. The reaction solution was incubated at 37° C. for 10 minutes and 4-hold amount of cold acetonitrile was added thereto to terminate the reaction. Then, the reaction solution was centrifuged (5000 g×10 minutes×4° C.), and the supernatant was collected to measure a production amount of a metabolized product by LC/MS/MS.

Rat PK test = format: in vivo; settings: iv, male Sprague-Dawley rat, caudal vein administration, 0.5 mg/kg, plasma; for Vd: CLp multiplied by MRT, read-out: Vdss; for clearance: administration amount divided by AUC0-∞, read-out: CLp (converted)
Protocol: A male Sprague-Dawely (Crj: CD(SD)IGS: CHARLES RIVER LABORATORIES JAPAN, INC.) rat was used between 7 to 8 weeks of age as an experimental animal. A rat fasted for one night was used. A test compound was dissolved into DMSO, thereto were added PEG and physical saline to adjust a concentration to be 0.5 mg/mL (20/20/60, v/v/v), and the solution was administered to the caudal vein in a use amount of 0.5 mg/kg. A blood sample was taken with a syringe treated with heparin from the jugular vein with time from 6 to 8 hours after administration and the taken blood was centrifuged to obtain plasma. A plasma drug concentration was measured using LC/MS/MS. For the sample for the LC/MS/MS measurement, a supernatant obtained by adding an internal standard substance and acetonitrile to the plasma and then deproteinization was used. A PK parameter was analyzed by a non-compartment model. A clearance (CLp) was calculated by dividing an administration amount by AUC0-∞. A distribution volume (Vdss) was calculated by multiplying CLp by a mean retention time (MRT).

CYP2C9 = biological target: T3, CYP2C9 (Homo sapiens, UniProt P11712); experiment: Test of inhibition of cytochrome P450 (2C9) enzyme; format: in vitro ADME; settings: human liver microsome, sulfaphenazole 10 μM, test compound 0.21 to 50 μM, 37° C. 10 minutes
T3 construct: human liver microsome with a protein concentration of 0.1 mg protein/mL; from tissue; host or cells: human liver microsomes
Protocol: (5) Test of Inhibition of Cytochrome P450 (2C9) Enzyme
as §1, with “sulfaphenazole (10” for “midazolam (2.5”, “[…].” for “500 μl.”

T2 sequence (P08684 whole entry): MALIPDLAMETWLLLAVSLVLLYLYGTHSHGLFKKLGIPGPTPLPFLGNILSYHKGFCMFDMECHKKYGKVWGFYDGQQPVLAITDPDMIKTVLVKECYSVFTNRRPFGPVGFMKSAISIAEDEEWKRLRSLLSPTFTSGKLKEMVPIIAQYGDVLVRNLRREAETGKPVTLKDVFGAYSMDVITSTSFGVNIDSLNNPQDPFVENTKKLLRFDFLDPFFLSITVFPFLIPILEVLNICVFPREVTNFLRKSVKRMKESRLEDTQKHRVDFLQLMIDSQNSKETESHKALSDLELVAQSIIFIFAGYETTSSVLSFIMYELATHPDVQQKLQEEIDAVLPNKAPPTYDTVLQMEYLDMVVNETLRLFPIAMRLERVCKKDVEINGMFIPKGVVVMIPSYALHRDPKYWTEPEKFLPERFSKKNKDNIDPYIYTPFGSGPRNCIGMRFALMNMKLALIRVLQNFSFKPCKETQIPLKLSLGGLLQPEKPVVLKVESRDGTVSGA
T1 sequence (P30518 whole entry, the tested form may be a part): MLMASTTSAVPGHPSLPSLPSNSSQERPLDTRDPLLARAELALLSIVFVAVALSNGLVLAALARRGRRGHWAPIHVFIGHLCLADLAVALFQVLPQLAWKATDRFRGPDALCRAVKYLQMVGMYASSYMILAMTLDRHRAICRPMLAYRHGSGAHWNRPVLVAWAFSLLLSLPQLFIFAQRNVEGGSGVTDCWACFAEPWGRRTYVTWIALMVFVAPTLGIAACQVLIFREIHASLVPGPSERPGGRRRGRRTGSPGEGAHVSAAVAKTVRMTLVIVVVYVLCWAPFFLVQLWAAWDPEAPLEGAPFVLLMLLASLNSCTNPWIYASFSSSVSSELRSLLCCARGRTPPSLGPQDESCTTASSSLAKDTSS
T3 sequence (P11712 whole entry): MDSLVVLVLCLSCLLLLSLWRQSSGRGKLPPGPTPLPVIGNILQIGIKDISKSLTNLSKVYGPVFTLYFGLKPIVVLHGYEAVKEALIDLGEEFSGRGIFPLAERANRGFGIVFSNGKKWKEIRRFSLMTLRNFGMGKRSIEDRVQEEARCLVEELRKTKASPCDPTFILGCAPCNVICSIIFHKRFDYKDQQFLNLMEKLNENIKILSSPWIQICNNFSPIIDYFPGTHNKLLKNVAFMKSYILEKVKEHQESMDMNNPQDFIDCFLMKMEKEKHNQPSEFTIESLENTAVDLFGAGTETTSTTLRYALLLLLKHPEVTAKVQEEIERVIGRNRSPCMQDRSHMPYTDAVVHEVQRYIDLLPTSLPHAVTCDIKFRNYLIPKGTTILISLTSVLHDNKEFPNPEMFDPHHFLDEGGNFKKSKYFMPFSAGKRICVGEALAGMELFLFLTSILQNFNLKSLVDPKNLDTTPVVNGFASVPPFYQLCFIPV

SMILES | EC50 (human V2 receptor) [nM] | Emax (human V2 receptor) [%] | IC50 (CYP3A4) [nM] | AUC (Rat PK test) [ng·h/mL] | Vd (Rat PK test) [L/kg] | clearance (Rat PK test) [mL/min/kg] | IC50 (CYP2C9) [nM]
Cc1ccn(-c2ccc(C(=O)N3CCC(C)(C(=O)NC(C)CO)Cc4ccccc43)c(C(F)(F)F)c2)n1 (single isomer, unassigned) [Example 89] | 1.4 | 102 | > 50000 | 371 | 1.23 | 22.5 | 40200
CC(NC(=O)C1(C)CCN(C(=O)c2ccc(N3CCCC3)cc2C(F)(F)F)c2ccccc2C1)C(N)=O (single isomer, unassigned) [Example 90] | 0.39 | 101 | – | 613 | 1.08 | 13.6 | –
C[C@@H]1CN(C(=O)c2ccc(-n3cccn3)cc2Cl)c2ccccc2CN1C(=O)NCCO [comparative compound 1, N-(2-hydroxyethyl)-(R)-1-(2-chloro-4-pyrazol-1-ylbenzoyl)-3-methyl-1,2,3,5-tetrahydro-benzo[e]-1,4-diazepine-4-carboxamide, reference compound] | – | – | – | 176 | 4.72 | 47.8 | –
Cc1ccn(-c2ccc(C(=O)N3CCC(C)(C(=O)NC(C)CO)Cc4ccccc43)c(Cl)c2)n1 (single isomer, unassigned) [Example 72] | 2.1 | 101 | > 50000 | 430 | 0.96 | 19.3 | 46800
CC(C)NC(=O)C[C@H]1CCCN(C(=O)c2ccc(N3CCCC3)cc2Cl)c2ccccc21 [comparative compound 2, 2-[(5R)-1-(2-chloro-4-pyrrolidine-1-ylbenzoyl)-2,3,4,5-tetrahydrobenzoazepine-5-yl]-N-isopropylacetoamide, reference compound] | – | – | 400 | – | – | – | 200
